Columns and labels:
[1] = test system: L1210; experiment: Tested in vitro for the inhibition of cell growth of mouse leukemia L1210 cell (ATCC CCL 219); format: functional, cell-based
[2] = test system: HeLa; experiment: Tested in vitro for the inhibition of cell growth of human cervix carcinoma HeLa S3 cell (ATCC CCL 2.2); format: functional, cell-based
[3] = test system: CCRF-CEM; experiment: Tested in vitro for the inhibition of cell growth of human T lymphoblastoid CCRF-CEM cell line (ATCC CCL 119); format: functional, cell-based
[4] = test system: L929; experiment: Tested in vitro for the inhibition of cell growth of murine L929 cells (ATCC CCL 1); format: functional, cell-based; conditions: Mus musculus
[5] = test system: HeLa; experiment: Tested in vitro for the inhibition of cell growth of human cervix carcinoma HeLa S3 cell (ATCC CCL 2.2); na = not active (inhibition of cell growth at 10 uM was lower than 20%); format: functional, cell-based
[6] = test system: CCRF-CEM; experiment: Tested in vitro for the inhibition of cell growth of human T lymphoblastoid CCRF-CEM cell line (ATCC CCL 119); na = not active (inhibition of cell growth at 10 uM was lower than 20%); format: functional, cell-based
[7] = test system: L1210; experiment: Tested in vitro for the inhibition of cell growth of mouse leukemia L1210 cell (ATCC CCL 219); na = not active (inhibition of cell growth at 10 uM was lower than 20%); format: functional, cell-based
[8] = test system: L929; experiment: Tested in vitro for the inhibition of cell growth of murine L929 cells (ATCC CCL 1); na = not active (inhibition of cell growth at 10 uM was lower than 20%); format: functional, cell-based, Mus musculus

Structure (SMILES) | IC50 [1] [nM] | IC50 [2] [nM] | IC50 [3] [nM] | IC50 [5] | IC50 [6] | IC50 [7] | IC50 [4] [nM] | IC50 [8]
O=c1[nH]c(=O)n([C@H]2C[C@H](O)[C@@H](CO)O2)cc1F [FLOXURIDINE] | < 20 | > 25000 | 500 | – | – | – | > 25000 | –
C(C#Cc1ncnc2c1ncn2C1CCCCO1)#Cc1ncnc2c1ncn2C1CCCCO1 (stereo not given) | 700 | 13300 | 580 | – | – | – | 1000 | –
CCCCCn1cnc2c(C#Cc3ncnc4c3ncn4CCCCC)ncnc21 | 1500 | 15000 | 360 | – | – | – | 3000 | –
CCCCCn1cnc2c(C#CC#Cc3ncnc4c3ncn4CCCCC)ncnc21 | 500 | 15000 | 370 | – | – | – | 1300 | –

Further lines, with some results ahead:

IC50 [1] [nM] | IC50 [2] [nM] | IC50 [3] [nM] | IC50 [5] | IC50 [6] | IC50 [7] | Structure (SMILES) | IC50 [4] [nM] | IC50 [8]
1800 | – | 900 | Not Active | – | – | C(#Cc1ncnc2c1ncn2Cc1ccccc1)c1ncnc2c1ncn2Cc1ccccc1 | 5300 | –
900 | 6000 | 320 | – | – | – | C(#Cc1ncnc2c1ncn2C1CCCCO1)c1ncnc2c1ncn2Cc1ccccc1 (stereo not given) | 1900 | –
– | – | – | Not Active | Not Active | Not Active | C(=C\c1ncnc2c1ncn2Cc1ccccc1)/c1ncnc2c1ncn2Cc1ccccc1 | – | Not Active
– | – | – | Not Active | Not Active | Not Active | C(=Cc1ncnc2c1ncn2Cc1ccccc1)c1ncnc2c1ncn2Cc1ccccc1 | – | Not Active
– | – | – | Not Active | Not Active | Not Active | c1ccc(Cn2cnc3c(CCc4ncnc5c4ncn5Cc4ccccc4)ncnc32)cc1 | – | Not Active
370 | – | 430 | Not Active | – | – | C(C#Cc1ncnc2c1ncn2Cc1ccccc1)#Cc1ncnc2c1ncn2Cc1ccccc1 | 6300 | –

From ChEMBL document CHEMBL1135266, “Covalent analogues of DNA base-pairs and triplets. Part 2: synthesis and cytostatic activity of bis(purin-6-yl)acetylenes,-diacetylenes and related compounds” (Bioorg Med Chem Lett, 2002)
